In publication PMC7413254 (Nature Communications, 2020):

Legend:
Assay type in all cases: cell-based
[1] = biological target: PfCRT^3D7 (Plasmodium falciparum, UniProt Q8IBZ9); test: cell-based; conditions: for [3H]CQ transport, PfCRT3D7 (% PfCRT3D7 control): trans-stimulation, solute 45 mM injected (estimated intracellular); for PfCRT-mediated [3H]CQ transport, trans-stimulation (% PfCRT3D7 control): PfCRT3D7 oocytes, normalised to oocyte type control
Outline: (§1)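 Oocytes (ten per treatment, ≥4 independent frogs/days) were preloaded by injecting VF-6 in 25 nL ND96 at pH 5.0, 5.5, 6.0 or 7.0, or Na^+-free choline buffer, then uptake run 1.5 h, 27.5 °C, ND96 pH 5.5 by default. Internal concentrations assumed ~400 nL oocyte volume.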

[2] = biological target: T1, PfNT1 (Plasmodium falciparum, UniProt Q8IDM6); test: cell-based; conditions: trans-stimulation, solute 45 mM injected (estimated intracellular)
T1 construct: expressed in transfected cells; host or cells: Xenopus laevis oocytes (stage V-VI), cRNA-injected
T1 sequence (Q8IDM6 whole entry): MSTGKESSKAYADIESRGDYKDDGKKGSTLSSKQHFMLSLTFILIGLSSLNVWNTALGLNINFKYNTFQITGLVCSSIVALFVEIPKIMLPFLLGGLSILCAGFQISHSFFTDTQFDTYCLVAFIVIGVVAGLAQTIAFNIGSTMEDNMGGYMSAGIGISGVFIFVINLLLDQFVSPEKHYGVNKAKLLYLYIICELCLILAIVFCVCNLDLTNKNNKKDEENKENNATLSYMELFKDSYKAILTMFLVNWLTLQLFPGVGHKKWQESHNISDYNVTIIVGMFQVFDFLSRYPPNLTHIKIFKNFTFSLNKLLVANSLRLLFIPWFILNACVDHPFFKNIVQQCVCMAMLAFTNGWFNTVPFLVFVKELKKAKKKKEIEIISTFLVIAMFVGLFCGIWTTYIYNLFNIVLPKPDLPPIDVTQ
Outline: as §1

[3] = biological target: T2, PfCRT^Dd2 (Plasmodium falciparum, UniProt Q9N623, A220S/I356T/K76T/M74I/N326S/N75E/Q271E/R371I); test: [3H]CQ uptake into Xenopus oocytes, cis-inhibition by unlabelled solute; conditions: PfCRTDd2 oocytes, background [3H]CQ accumulation subtracted, normalised to oocyte type control
T2 sequence (Q9N623 whole entry A220S/I356T/K76T/M74I/N326S/N75E/Q271E/R371I): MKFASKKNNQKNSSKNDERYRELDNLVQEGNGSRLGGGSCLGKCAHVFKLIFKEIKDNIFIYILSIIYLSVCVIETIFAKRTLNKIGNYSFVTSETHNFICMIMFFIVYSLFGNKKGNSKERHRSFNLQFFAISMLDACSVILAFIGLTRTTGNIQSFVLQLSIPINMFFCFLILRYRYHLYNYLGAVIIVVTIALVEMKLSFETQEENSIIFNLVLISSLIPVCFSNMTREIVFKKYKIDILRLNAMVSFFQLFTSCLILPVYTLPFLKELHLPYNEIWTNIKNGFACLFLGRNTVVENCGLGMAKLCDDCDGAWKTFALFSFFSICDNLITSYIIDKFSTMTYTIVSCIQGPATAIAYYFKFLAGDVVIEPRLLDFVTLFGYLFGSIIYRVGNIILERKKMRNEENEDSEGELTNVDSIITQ
Outline: (§2)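 Transport runs from the acidic bath into the cytosol, analogous to PfCRT-mediated efflux out of the vacuole. Non-expressing oocytes act as background.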

[4] = biological target: T3, PfCRT^Ecu1110 (Plasmodium falciparum, UniProt Q9N623, A220S/I356L/K76T/N326D); test: as above; conditions: for PfCRT-mediated [3H]CQ transport, cis-inhibition (% PfCRTEcu1110 control): PfCRTEcu1110 oocytes, background [3H]CQ accumulation subtracted, normalised to oocyte type control; for [3H]CQ transport (% PfCRTEcu1110 control), cis-inhibition, PfCRTEcu1110: PfCRT-mediated component (background subtracted), sheet title says normalised to PfCRTDd2 control, mean ± SEM, SEM
T3 sequence (Q9N623 whole entry A220S/I356L/K76T/N326D): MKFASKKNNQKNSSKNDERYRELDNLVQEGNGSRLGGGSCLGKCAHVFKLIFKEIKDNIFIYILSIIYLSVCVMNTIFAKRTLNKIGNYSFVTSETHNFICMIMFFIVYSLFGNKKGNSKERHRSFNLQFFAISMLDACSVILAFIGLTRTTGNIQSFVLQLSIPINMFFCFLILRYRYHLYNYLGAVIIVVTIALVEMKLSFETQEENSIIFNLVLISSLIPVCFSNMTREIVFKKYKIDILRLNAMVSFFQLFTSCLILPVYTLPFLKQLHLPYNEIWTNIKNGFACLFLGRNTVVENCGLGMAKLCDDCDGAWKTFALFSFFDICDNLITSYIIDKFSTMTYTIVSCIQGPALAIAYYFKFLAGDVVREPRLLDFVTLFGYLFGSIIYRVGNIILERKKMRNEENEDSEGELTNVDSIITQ
Outline: as §2

[5] = biological target: T2, PfCRT^Dd2; test: cell-based; conditions: for PfCRT-mediated [3H]CQ transport, trans-stimulation (% PfCRTDd2 control): PfCRTDd2 oocytes, normalised to oocyte type control; for [3H]CQ transport (% PfCRTDd2 control), trans-stimulation, PfCRTDd2: PfCRT-mediated component (background subtracted), mean ± SEM, SEM
Outline: as §1

[6] = biological target: T3, PfCRT^Ecu1110; test: cell-based; conditions: for PfCRT-mediated [3H]CQ transport, trans-stimulation (% PfCRTEcu1110 control): PfCRTEcu1110 oocytes, normalised to oocyte type control; for [3H]CQ transport (% PfCRTDd2 control), trans-stimulation, PfCRTEcu1110: PfCRT-mediated component (background subtracted), sheet title says normalised to PfCRTDd2 control, mean ± SEM, SEM
Outline: as §1

[7] = [test solute]i = 5 mM (intracellular)
[8] = [test solute]i = 45 mM (intracellular; 30 mM for some solutes due to solubility)
[9] = [test solute]i = 5 mM (injected)
[10] = [test solute]i = 45 mM (30 mM for some solutes due to solubility)

Sequence of PfCRT^3D7 (Q8IBZ9 59-398): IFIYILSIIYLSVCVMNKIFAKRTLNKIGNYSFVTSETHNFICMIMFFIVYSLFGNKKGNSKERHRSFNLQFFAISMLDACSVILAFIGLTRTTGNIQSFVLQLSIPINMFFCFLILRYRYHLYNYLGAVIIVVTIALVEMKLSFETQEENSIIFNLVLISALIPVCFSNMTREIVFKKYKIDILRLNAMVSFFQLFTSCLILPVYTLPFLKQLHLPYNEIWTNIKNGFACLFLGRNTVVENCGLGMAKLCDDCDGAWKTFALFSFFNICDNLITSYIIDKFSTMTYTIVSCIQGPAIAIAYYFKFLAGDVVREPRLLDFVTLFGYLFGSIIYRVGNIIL

Row | Substance | PfCRT-mediated [3H]CQ transport, cis-inhibition (% PfCRTDd2 control) ([3]; [test solute] = 0.5 mM) | PfCRT-mediated [3H]CQ transport, cis-inhibition (% PfCRTDd2 control) ([3]; [test solute] = 1 mM) | PfCRT-mediated [3H]CQ transport, cis-inhibition (% PfCRTDd2 control) ([3]; [test solute] = 2 mM) | PfCRT-mediated [3H]CQ transport, cis-inhibition (% PfCRTEcu1110 control) ([4]; [test solute] = 0.5 mM) | PfCRT-mediated [3H]CQ transport, cis-inhibition (% PfCRTEcu1110 control) ([4]; [test solute] = 1 mM) | PfCRT-mediated [3H]CQ transport, cis-inhibition (% PfCRTEcu1110 control) ([4]; [test solute] = 2 mM) | [3H]CQ transport (% PfCRTEcu1110 control), cis-inhibition, PfCRTEcu1110 ([4]; [test solute] = 1 mM) [% PfCRTEcu1110 control] | [3H]CQ transport (% PfCRTEcu1110 control), cis-inhibition, PfCRTEcu1110 ([4]; [test solute] = 2 mM) [% PfCRTEcu1110 control] | PfCRT-mediated [3H]CQ transport, trans-stimulation (% PfCRT3D7 control) [1, 7] [% PfCRT3D7 control] | PfCRT-mediated [3H]CQ transport, trans-stimulation (% PfCRT3D7 control) [1, 8] [% PfCRT3D7 control] | PfCRT-mediated [3H]CQ transport, trans-stimulation (% PfCRTDd2 control) [5, 7] [% PfCRTDd2 control] | PfCRT-mediated [3H]CQ transport, trans-stimulation (% PfCRTDd2 control) [5, 8] [% PfCRTDd2 control] | [3H]CQ transport (% PfCRTDd2 control), trans-stimulation, PfCRTDd2 [5, 9] [% PfCRTDd2 control] | [3H]CQ transport (% PfCRTDd2 control), trans-stimulation, PfCRTDd2 [5, 10] [% PfCRTDd2 control] | PfCRT-mediated [3H]CQ transport, trans-stimulation (% PfCRTEcu1110 control) [6, 7] [% PfCRTEcu1110 control] | PfCRT-mediated [3H]CQ transport, trans-stimulation (% PfCRTEcu1110 control) [6, 8] [% PfCRTEcu1110 control] | [3H]CQ transport (% PfCRTDd2 control), trans-stimulation, PfCRTEcu1110 [6, 9] [% PfCRTEcu1110 control] | [3H]CQ transport (% PfCRTDd2 control), trans-stimulation, PfCRTEcu1110 [6, 10] [% PfCRTEcu1110 control] | other results
1 | AHAGEYGAEALE [AE-12] | – | – | – | – | – | – | – | – | – | – | – | – | – | – | – | – | – | – | [3H]CQ transport, PfCRT3D7 (% PfCRT3D7 control) ([1]; Experiment 1): 100.93 % PfCRT3D7 control; [3H]CQ transport, PfCRT3D7 (% PfCRT3D7 control) ([1]; Experiment 2): 94.28 % PfCRT3D7 control; [3H]CQ transport, PfCRT3D7 (% PfCRT3D7 control) ([1]; Experiment 3): 100.75 % PfCRT3D7 control; [3H]CQ transport, PfCRT3D7 (% PfCRT3D7 control) ([1]; Experiment 4): 102.32 % PfCRT3D7 control; [3H]CQ transport, PfNT1 (% PfCRTDd2 control) ([2]; Experiment 1): 2.23 % PfCRTDd2 control; [3H]CQ transport, PfNT1 (% PfCRTDd2 control) ([2]; Experiment 2): 2.37 % PfCRTDd2 control; [3H]CQ transport, PfNT1 (% PfCRTDd2 control) ([2]; Experiment 3): 2.71 % PfCRTDd2 control; [3H]CQ transport, PfNT1 (% PfCRTDd2 control) ([2]; Experiment 4): 2.43 % PfCRTDd2 control
2 | GTFAT [GT-5] | 62 ± 2.0 | 50 ± 2.2 | 20 ± 1.1 | 51 ± 1.1 | 41 ± 2.5 | 30 ± 0.4 | 13 ± 0.3 | 9.0 ± 0.1 | 96 ± 3.5 | 96 ± 3.4 | 96 ± 3.5 | 96 ± 4.2 | 96 ± 3.5 | 96 ± 4.2 | 98 ± 4.6 | 98 ± 4.4 | 30 ± 1.6 | 30 ± 1.7 | –
3 | VDPVNFK [VK-7] | 17 ± 0.3 | 9 ± 0.1 | 3.2 ± 0.1 | 40 ± 2.5 | 27 ± 4.1 | 22 ± 2.4 | 9.0 ± 0.02 | 7.0 ± 0.04 | 128 ± 3.2 | 179 ± 5.3 | 100 ± 4.2 | 98 ± 2.2 | 100 ± 4.2 | 98 ± 2.2 | 132 ± 3.5 | 138 ± 4.1 | 40 ± 2.1 | 42 ± 2.4 | [3H]CQ transport (% PfCRTEcu1110 control), cis-inhibition, PfCRTEcu1110 ([4]; [test solute] = 0.5 mM): 13 ± 0.6 % PfCRTEcu1110 control
4 | HVDDMPNA [HA-8] | 48 ± 3.1 | 27 ± 0.4 | 20 ± 1.3 | 50 ± 2.1 | 40 ± 2.5 | 27 ± 1.4 | – | – | 99 ± 3.8 | 97 ± 4.1 | 96 ± 3.1 | 96 ± 2.1 | – | – | 95 ± 2.2 | 99 ± 3.8 | – | – | –
5 | PNALS [PS-5, host-derived peptide upstream of PL-4] | – | 30 ± 2.7 | 19 ± 0.3 | 50 ± 2.5 | 42 ± 1.8 | 29 ± 1.1 | 13 ± 0.1 | 9.0 ± 0.01 | 131 ± 6.2 | 180 ± 3.6 | 99 ± 4.6 | 96 ± 4.1 | 99 ± 4.6 | 96 ± 4.1 | 127 ± 2.6 | 136 ± 4.6 | 38 ± 1.5 | 41 ± 2.2 | –
6 | PHFDLS [PS-6] | 46 ± 1.0 | 32 ± 1.1 | 17 ± 0.3 | 41 ± 2.5 | 33 ± 1.7 | 21 ± 1.6 | – | 7.0 ± 0.01 | 140 ± 4.3 | 188 ± 4.5 | 96 ± 4.7 | 95 ± 4.6 | 96 ± 4.7 | 95 ± 4.6 | 121 ± 4.5 | 138 ± 4.6 | 37 ± 1.4 | 43 ± 1.3 | –
